{"source": "paper PMC7918775", "about": "“Quality by Design Applied Development of Immediate-Release Rabeprazole Sodium Dry-Coated Tablet” (Pharmaceutics, 2021)", "key": {"[1]": {"settings": "cited from earlier work"}, "physchem": {"test": "physchem", "settings": "water, thermodynamic from solid", "description": "The solubility of each component in deionized water, solvents (ethanol, methanol), citric acid/sodium citrate buffer, and pH buffer was evaluated.\nEach vial contained 10 mg rabeprazole sodium, and 200 µL of each solvent was slowly added. […] The solutions were filtered and then diluted 2000× to measure the quantity of rabeprazole sodium dissolved in the solution. Equilibrium or final rabeprazole sodium solubility was calculated from the HPLC peak. Peak area of sample solution × 100 × 100/Average of standard solution peak area ×1000"}, "[2]": {"test": "Rabeprazole sodium/excipient compatibility study (appearance, impurities by HPLC)", "assay_type": "physicochemical", "settings": "1:1 (w/w) mixtures, HPLC impurity test; threshold 3.5%", "description": "(§1) The latter reflects the proportions of APIs in each commercialized tablet. The prepared samples were stored in a stability chamber for 4 weeks at room temperature of 25 ± 2 °C/ 60 ± 5% RH and under acceleration conditions of 40 ± 2 °C/ 75 ± 5% RH, respectively. […] If none were detected, an additional impurity test was performed to confirm compatibility."}, "[3]": {"settings": "cited from earlier work", "remark": "listed apart in the source"}, "[4]": {"test": "Stability of APIs in solution at various pH (content, appearance)", "assay_type": "physicochemical"}, "[5]": {"test": "API-API compatibility study (impurities by HPLC)", "assay_type": "physicochemical", "description": "as §1"}, "[6]": {"description": "The solution was then stirred at 37 ± 2 °C for 1 h and filtered by polyvinylidene fluoride (PVDF) membrane filter. Next, 50 mL of the filtrate was obtained and titrated with hydrochloric acid with 0.1 M sodium hydroxide solution (pH measurement method) with an endpoint of pH 3.5."}}, "note": "“Also recorded” adds a separate entry of the source. Read-outs that look alike come from different tables or passages of the source."}
{"smiles": "COCCCOc1ccnc(C[S+]([O-])c2nc3ccccc3[nH]2)c1C", "note": "(stereo not drawn) [Rabeprazole sodium]", "values": [{"measurement": "Time to reach maximum plasma concentration", "setting": "[1]; Adolescents, Tablets", "value": "3.3 to 4.1", "unit": "h"}, {"measurement": "Time to reach maximum plasma concentration", "setting": "[1]; Adults, Capsule", "value": "1 to 6.5", "unit": "h"}, {"measurement": "Time to reach maximum plasma concentration", "setting": "[1]; Adults, Tablets", "value": "2 to 5", "unit": "h"}, {"measurement": "Bioavailability", "setting": "[1]; Tablets", "value": "~52", "unit": "%"}, {"measurement": "Half-life (dose dependent)", "setting": "[1]; adolescents", "value": "33 to 60", "unit": "min"}, {"measurement": "Half-life (dose dependent)", "setting": "[1]; adults", "value": "60 to 120", "unit": "min"}, {"measurement": "Action onset time", "setting": "[1]; in vivo", "value": "≤ 1", "unit": "h"}, {"measurement": "Duration", "setting": "[1]; in vivo", "value": 24, "unit": "h"}, {"measurement": "Excretion: urine", "setting": "[1]; in vivo", "value": 90, "unit": "%"}, {"measurement": "Metabolism", "setting": "[1]; in vivo", "value": "metabolized by CYP3A and 2C19 to inactive metabolites in the liver"}, {"measurement": "Protein binding rate", "setting": "[1]; in vivo", "value": 96.3, "unit": "%"}, {"measurement": "Delay of absorption by food", "setting": "[1]; oral, with food", "value": "up to 4 h or more"}, {"measurement": "Absorption: Oral", "setting": "[1]; oral", "value": "well absorbed within 1 h"}, {"measurement": "Half-life increase", "setting": "[1]; patients with mild to moderate hepatic impairment", "value": "2–3 times"}, {"measurement": "solubility", "setting": "physchem", "value": "> 110", "unit": "mg/mL"}, {"measurement": "Concentration of decomposition products", "setting": "[2]", "value": "no decomposition products were formed"}, {"measurement": "solubility", "setting": "[3]; Water", "value": "10 mg/mL (Water)"}, {"measurement": "Decomposition half-life", "setting": "[3]; aqueous solutions with pH < 3.0", "value": "< 10", "unit": "min"}, {"measurement": "pKa (Strongest Acidic)", "setting": "[3]", "value": 9.35}, {"measurement": "pKa (Strongest Basic)", "setting": "[3]", "value": 4.24}, {"measurement": "Rabeprazole sodium content measured according to pH", "setting": "[4]; pH 1.2 to 6.0", "value": "30 to 60", "unit": "%"}, {"measurement": "Time stable in solution", "setting": "[4]; pH 8.0", "value": "~ 26 h"}, {"measurement": "Appearance in buffers", "setting": "[4]; range of pH 1.2–12.0", "value": "changed in buffers with pH < 7.0; also recorded: transparent in buffers with pH > 8.0"}, {"measurement": "Impurities, 4 Weeks", "setting": "[5]; Accelerated Condition 40 °C/75% RH", "value": 1.31, "unit": "%"}, {"measurement": "Impurities, 4 Weeks", "setting": "[5]; Room Temperature 25 °C/60% RH", "value": 0.07, "unit": "%"}, {"measurement": "Impurities, Initial", "setting": "[5]; initial", "value": 0.06, "unit": "%"}]}
{"smiles": "O=C([O-])O.[Na+]", "note": "[Sodium bicarbonate]", "values": [{"measurement": "Duration", "setting": "[1]; Intravenous (IV)", "value": "0.13 to 0.167", "unit": "h"}, {"measurement": "Onset time of action", "setting": "[1]; Intravenous (IV)", "value": "fast"}, {"measurement": "Excretion: urine", "setting": "[1]; in vivo", "value": "< 1", "unit": "%"}, {"measurement": "Duration", "setting": "[1]; oral", "value": "1 to 3", "unit": "h"}, {"measurement": "Onset time of action", "setting": "[1]; oral", "value": 15, "unit": "min"}, {"measurement": "PKa (carbonic acid)", "setting": "[3]; carbonic acid", "value": 6.351}, {"measurement": "PKa", "setting": "[3]", "value": 10.329}, {"measurement": "Acid-neutralizing capacity (0.1 M HCl consumption)", "setting": "[6]; 200 mg sodium bicarbonate", "value": 38, "unit": "mL"}, {"measurement": "Acid-neutralizing capacity (0.1 M HCl consumption)", "setting": "[6]; 300 mg sodium bicarbonate", "value": 42, "unit": "mL"}, {"measurement": "Acid-neutralizing capacity (0.1 M HCl consumption)", "setting": "[6]; 400 mg sodium bicarbonate", "value": 45, "unit": "mL"}, {"measurement": "Acid-neutralizing capacity (0.1 M HCl consumption)", "setting": "[6]; 500 mg sodium bicarbonate", "value": 49, "unit": "mL"}, {"measurement": "Acid-neutralizing capacity (0.1 M HCl consumption)", "setting": "[6]; 600 mg sodium bicarbonate", "value": 57, "unit": "mL"}, {"measurement": "Acid-neutralizing capacity (0.1 M HCl consumption)", "setting": "[6]; 700 mg sodium bicarbonate", "value": 68, "unit": "mL"}, {"measurement": "Acid-neutralizing capacity (0.1 M HCl consumption)", "setting": "[6]; 800 mg sodium bicarbonate", "value": 79, "unit": "mL"}, {"measurement": "Acid-neutralizing capacity (0.1 M HCl consumption)", "setting": "[6]; 900 mg sodium bicarbonate", "value": 84, "unit": "mL"}, {"measurement": "Acid-neutralizing capacity (0.1 M HCl consumption)", "setting": "[6]; 1000 mg sodium bicarbonate", "value": 89, "unit": "mL"}]}
